# Measured values: BindingDB's records for doi:10.1016/S0960-894X(01)80380-2 (1994)
# Assay: Inhibition of ADP-mediated platelet aggregation in human gel-filtered platelets
row,SMILES,IC50 [nM]
1,O=C(O)CCNC(=O)c1cc(C(=O)NCCC2CCNCC2)ccn1 [3-{[4-(2-Piperidin-4-yl-ethylcarbamoyl)-pyridine-2-carbonyl]-amino}-propionic acid],1100
2,O=C(O)CCNC(=O)c1cncc(C(=O)NCCC2CCNCC2)c1 [3-{[5-(2-Piperidin-4-yl-ethylcarbamoyl)-pyridine-3-carbonyl]-amino}-propionic acid],2000
3,O=C(O)CCNC(=O)c1ccnc(C(=O)NCCC2CCNCC2)c1 [3-{[2-(2-Piperidin-4-yl-ethylcarbamoyl)-pyridine-4-carbonyl]-amino}-propionic acid],1600
4,O=C(O)CCNC(=O)c1cccc(C(=O)NCCC2CCNCC2)c1 [3-[3-(2-Piperidin-4-yl-ethylcarbamoyl)-benzoylamino]-propionic acid],530
5,O=C(O)CCNC(=O)c1cccc(C(=O)NCCC2CCNCC2)n1 [3-{[6-(2-Piperidin-4-yl-ethylcarbamoyl)-pyridine-2-carbonyl]-amino}-propionic acid],300000
6,"O=C(O)CCN1Cc2ccc(C(=O)NCCC3CCNCC3)cc2C1=O [3-[1-Oxo-6-(2-piperidin-4-yl-ethylcarbamoyl)-1,3-dihydro-isoindol-2-yl]-propionic acid]",10000
